Where two headings read alike, the source gives them in different places.
What was measured:
[1] = molecular target: PfYRS (Plasmodium falciparum, UniProt Q8IAR7); assay: ATP consumption by PfYRS (Kinase-Glo); type: biochemical
Procedure: 804 An intron was detected in the PftRNATyr sequence, that was not indicated in PlasmoDB. A T7 RNA
805 polymerase promoter sequence was added to the 5’ end of the DNA sequence of P. falciparum and H.
806 sapiens tRNATyr. This DNA template and its complementary strand were custom-synthesized by Sigma-
807 Aldrich. Two oligonucleotides were annealed at 95°C for 5 min and the double-stranded DNA template
808 was used for in vitro transcription. The transcription reaction was incubated at 37°C overnight. The reaction
809 mixture consists of template DNA, T7 RNA polymerase and NTP mix as per manufacturer's instructions
810 (HiScribe™ T7 Quick High Yield RNA Synthesis Kit, NEB). On the following day, the reaction mixture
811 was treated with DNase I at 37°C for 15 min. tRNA was purified using RNA clean-up spin columns
812 (Monarch® RNA Cleanup Kit, NEB) to remove contaminants from the transcription reaction. […]
820 was sealed and analysed using StepOnePlus Real-Time PCR system (Applied Biosystems). […]
822 as the first derivative curve of the raw fluorescence values. […]
824 values were calculated from DTm using the equation: ln(KD/[L]) = -131.5 x (∆Tm/Tm,apo) - 1.9, where [L] […]
828 Consumption of ATP by YRS was measured using a luciferase-based assay as per the manufacturer’s […]
836 The aminoacylation activity of YRS was measured by the incorporation of tritiated L-tyrosine into tRNATyr […]

[2] = Caco2 permeability; type: in vitro ADME; details: human, Caco-2
[3] = system: P. falciparum (Cam3.II-rev) schizont stage; assay: 3 h drug pulse viability assay; type: cell-based, Plasmodium falciparum; details: Plasmodium falciparum, 3 h, read-out: IC50 (Viability)
Procedure: 553 Sigma-Aldrich) for 48-72 h. For drug pulse assays, tightly synchronized parasites (1-1.5% parasitemia,
554 0.2% final hematocrit) were added to the plates and incubated for 3 h. Drugs were removed and the
555 parasitemia assessed in the trophozoite stage of the next cycle.
557 Compounds were tested against a range of drug resistant field isolates and laboratory strains using a
558 modified [3H]-hypoxanthine incorporation assay, as previously reported (46). Field isolates 7G8, Cam3.1,
559 Dd2, K1, TM90C2B and NF54 were obtained from MR4 (www.beiresources.org).
561 Mammalian cell culture experiments
562 The HepG2 (Human hepatocyte carcinoma) cell line was procured from ATCC (American Type
563 Culture Collection, Manassas, USA; HB-8065) and viability assessed using Cell Titer-GLO luminescent
564 cell viability assay reagents (Promega, catalogue number: G7570) (47, 48). For the assay, 2000 cells/well
565 were plated in 384-well plates 24 h prior to the experiment and incubated at 37°C in a CO2 incubator. The
566 medium was removed and cells were treated with fresh medium containing either vehicle (0.5% DMSO)
567 or serially diluted test compounds or doxorubicin (1.3 nM to 25 µM) in a final volume of 50 µl/well and
568 further incubated for 72 h at 37°C in a CO2 incubator.
569 were treated with 5 µl of 1% Triton X-100 (final assay conc. 0.1%). Following incubation, 25 µl of medium
570 was discarded and 25 µl of Cell Titer-GLO reagent was added to each well and the plate was kept on a plate
571 shaker for 15 min at 25°C with shaking at 300 rpm. Luminescence signals were measured in a Spectramax
572 M5 reader (Molecular Devices).
574 H1650 is a human lung cancer derived ATG7-null cell line (49) that can be used to assess effects on targets
576 adenocarcinoma; bronchoalveolar carcinoma). Other cells lines used are: H460 (NCI-H460; human lung;
577 carcinoma; large cell lung cancer; ATCC: HTB-177); and HCT116 (human colon; colorectal carcinoma;
578 ATCC: CCL-247; Lot : 5056139). […]
580 inhibitors and cell viability was assessed by comparing the ATP content in compound-treated wells with […]

Sequence of PfYRS (Q8IAR7 entry or part of it): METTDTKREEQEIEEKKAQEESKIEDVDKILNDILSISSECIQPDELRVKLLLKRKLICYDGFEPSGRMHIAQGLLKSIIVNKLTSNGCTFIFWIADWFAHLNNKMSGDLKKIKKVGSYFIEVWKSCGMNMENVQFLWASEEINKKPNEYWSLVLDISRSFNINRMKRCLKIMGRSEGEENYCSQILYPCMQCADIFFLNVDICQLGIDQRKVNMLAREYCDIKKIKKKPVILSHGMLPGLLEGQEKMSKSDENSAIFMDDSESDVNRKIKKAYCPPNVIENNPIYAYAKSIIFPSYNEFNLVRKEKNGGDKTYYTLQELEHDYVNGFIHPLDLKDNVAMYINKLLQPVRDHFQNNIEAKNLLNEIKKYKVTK

Nc1ncnc2c1c(OC(F)F)nn2[C@@H]1O[C@H](COS(N)(=O)=O)[C@@H](O)[C@H]1O [ML901]
IC50 ([1]; in the absence of cognate tRNATyr, read-out: IC50 (-PftRNATyr), ATP consumption by PfYRS): > 500 µM | IC50 ([1]; in the presence of cognate tRNATyr, read-out: IC50 (+PftRNATyr), ATP consumption by PfYRS): 25 µM | Papp A→B ([2]; A to B): 0.7 ×10⁻⁶ cm/s | Papp B→A ([2]; B to A): 0.82 ×10⁻⁶ cm/s | IC50 [3]: 0.056 µM
